According to PMC10165273, “Itch receptor MRGPRX4 interacts with the receptor activity–modifying proteins” (The Journal of Biological Chemistry, 2023):
Values joined by “and” are separate entries in the source; they are usually repeats but may differ in a detail not shown here. Equal values may be shown once.

Columns and labels:
MRGPRX4 + RAMP3 [1] = molecular target: T1, MRGPRX4 + RAMP3 (Homo sapiens, UniProt Q96LA9); test: IP1 accumulation, MRGPRX4 coexpressed with RAMP3; format: cell-based; design: key to IP1 Basal / response to agonist, X4:ramp3.I:0.25 / response to agonist, X4:ramp3.I:0.5 / response to agonist, X4:ramp3.I:1: % IP1; unstimulated mock = 0%, fully stimulated MRGPRX4 = 100%; details: Figure 4c-f, agonist 100µM, MRGPRX4 = 100
T1 construct: expressed in transfected cells; host or cells: HEK293T
Experimental: (§1) HEK293T cells were transfected with 1 pg/cell of MRGPRX4 DNA, and the amount of DNA was kept constant at 2 pg/cell with pcDNA3.1(+) empty vector, unless otherwise specified. Twenty four hours after transfection, IP1 assay was performed as previously described ([51]). When applicable, cells were treated with 1 μM YM254890 (YM) or different concentrations of U73122 for 1 h prior to addition of agonist or buffer. After incubation for 2 h, HTRF reagents and IP1 calibration standards were added and incubated for 2 h in the dark at room temperature. Time-resolved fluorescence signals were read on the BioTek Synergy NEO-TRF Hybrid multi-mode reader (BioTek Instruments). All data were carried out in three independent experiments with three technical replicate each.
(§2) For RAMP DNA titration assay, HEK293T cells were cotransfected with a constant amount of 1 pg/cell of FLAG-MRGPRX4-GFP10-1D4 to which a serial dilution of 1, 0.75, 0.5, 0.25, or 0 pg/cell of each HA-RAMP-OLLAS was added. For a homogenous transfection of MRGPRX4, a master mix of MRGPRX4 DNA was made prior to addition of the RAMP DNA. […]
(§3) Data reduction, standard calibration, and transformation of HTRF data were performed as previously described ([51]). Normalized IP1 values were calculated relative to the unstimulated mock-transfected cells (set to 0%) and fully stimulated MRGPRX4 (alone if applicable) (set to 100%).

MRGPRX4 + RAMP1 = molecular target: T2, MRGPRX4 + RAMP1 (Homo sapiens, UniProt Q96LA9); test: IP1 accumulation, MRGPRX4 coexpressed with RAMP1; format: cell-based; design: key to IP1 Basal / response to agonist, X4:ramp1.I:1 / response to agonist, X4:ramp1.I:2 / response to agonist, X4:ramp1.I:0.25 / response to agonist, X4:ramp1.I:0.5: % IP1; unstimulated mock = 0%, fully stimulated MRGPRX4 = 100%; details: Figure 4c-f, agonist 100µM, MRGPRX4 = 100
T2 construct: expressed in transfected cells; host or cells: HEK293T
Experimental: as §1
For a homogenous transfection of MRGPRX4, a master mix of MRGPRX4 DNA was made prior to addition of the RAMP DNA. […]
as §3

MRGPRX4 + RAMP3 [2] = molecular target: T1, MRGPRX4 + RAMP3; test: IP1 accumulation, MRGPRX4 coexpressed with RAMP3; format: cell-based; design: key: % IP1; unstimulated mock = 0%, fully stimulated MRGPRX4 = 100%; details: Figure 4c-f; agonist 100µM; X4:ramp3 1:2; MRGPRX4 = 100
[3] = test system: mock-transfected HEK293T cells; test: IP1 accumulation, mock-transfected cells; format: cell-based, human; design: IP1 Basal / IP1 span / IP1 Emax / IP1 accumulation, dose-response (Figure 1a) / IP1 accumulation with YM (Figure 1c) / IP1 accumulation: unit not given here; details: pcDNA (mock), individual replicates
Experimental: as §1
Validation of CALCRL constructs was assayed by cotransfecting HEK293T cells with different tagged versions of CALCRL alone or with each RAMP and with the promiscuous Gqs5 Gq chimera protein, at a respective DNA ratio of 1:1:0.5. Gqs5 is an engineered Gq protein containing the last five amino acid residues of Gs, which allows Gs-coupled GPCRs to signal through Gq downstream signaling pathways ([55]). The homogenous transfection method described above was used for all DNA mixes. CALCRL:RAMP2:Gqs5-transfected cells served as positive control for RAMP functionality.
as §3

MRGPRX4 + RAMP2 = molecular target: T3, MRGPRX4 + RAMP2 (Homo sapiens, UniProt Q96LA9); test: IP1 accumulation, MRGPRX4 coexpressed with RAMP2; format: cell-based; design: key to response to agonist, X4:ramp2.I:2: % IP1: mock-transfected unstimulated = 0%, fully stimulated MRGPRX4 = 100%; key to IP1 Basal / response to agonist, X4:ramp2.I:0.25 / response to agonist, X4:ramp2.I:0.5 / response to agonist, X4:ramp2.I:1: % IP1; unstimulated mock = 0%, fully stimulated MRGPRX4 = 100%; details: Figure 4c-f, agonist 100µM, MRGPRX4 = 100
T3 construct: expressed in transfected cells; host or cells: HEK293T
Experimental: as §1, §2, §3

MRGPRX4 = molecular target: T4, MRGPRX4 (Homo sapiens, UniProt Q96LA9); test: IP1 accumulation HTRF assay, MRGPRX4; format: cell-based; design: key to IP1 Basal / IP1 accumulation with YM (Figure 1c) / response to agonist, MRGPRX4 / IP1 accumulation: % IP1: unstimulated mock-transfected = 0%, fully stimulated MRGPRX4 = 100%
T4 construct: expressed in transfected cells; host or cells: HEK293T
Experimental: as §1
For characterization of the Tet-On Nluc-HT7-MRGPRX4-GFP10-1D4 construct, HEK293T cells were transfected as previously described with some modifications. Dox dose-response of NLuc-HT7-MRGPRX4-GFP10-1D4 DNA titration was assayed by transfecting HEK293T cells with either 1 or 2 pg/cell of NLuc-HT7-MRGPRX4-GFP10-1D4 construct. Receptor expression was induced 4 h after transfection with addition of different concentrations of dox for 20 h. For the RAMP DNA titration assay, cells were cotransfected with a constant amount of 1 pg/cell of NLuc-HT7-MRGPRX4-GFP10-1D4 DNA and 1, 0.75, 0.5, or 0 pg/cell of each HA-RAMP-OLLAS with the homogenous transfection method. Four hours after transfection, receptor expression was induced with addition of 1000 ng/ml dox. Twenty hours after induction, IP1 assay was performed.
as §3

T1 sequence (Q96LA9 whole entry): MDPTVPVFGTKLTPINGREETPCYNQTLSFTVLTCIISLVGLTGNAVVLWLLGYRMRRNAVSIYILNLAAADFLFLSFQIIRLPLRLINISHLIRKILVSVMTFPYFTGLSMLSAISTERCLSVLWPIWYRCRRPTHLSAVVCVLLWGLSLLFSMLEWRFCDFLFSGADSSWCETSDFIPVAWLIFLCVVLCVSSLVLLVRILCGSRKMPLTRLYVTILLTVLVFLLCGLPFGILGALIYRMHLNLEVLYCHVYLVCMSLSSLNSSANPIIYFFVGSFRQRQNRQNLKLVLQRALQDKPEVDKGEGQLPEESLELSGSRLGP
T2 sequence (Q96LA9 whole entry): as above
T3 sequence (Q96LA9 whole entry): as above
T4 sequence (Q96LA9 whole entry): as above

SMILES: C[C@H](CCC(=O)O)[C@H]1CC[C@H]2[C@@H]3[C@@H](O)C[C@@H]4C[C@H](O)CC[C@]4(C)[C@H]3CC[C@]12C [UDCA, ursodeoxycholic acid]
- response to agonist, X4:ramp3.I:0.25 (MRGPRX4 + RAMP3 [1]; X4:ramp3 1:0.25): 86.9905 and 87.7685
- response to agonist, X4:ramp3.I:0.5 (MRGPRX4 + RAMP3 [1]; X4:ramp3 1:0.5): 74.5043 and 88.6761
- response to agonist, X4:ramp3.I:1 (MRGPRX4 + RAMP3 [1]; X4:ramp3 1:1): 78.3418 and 68.7873
- response to agonist, X4:ramp1.I:0.25 (MRGPRX4 + RAMP1; X4:ramp1 1:0.25): 100.75 and 106.142
- response to agonist, X4:ramp1.I:0.5 (MRGPRX4 + RAMP1; X4:ramp1 1:0.5): 100.618 and 106.983
- response to agonist, X4:ramp1.I:1 (MRGPRX4 + RAMP1; X4:ramp1 1:1): 95.1306 and 98.4249
- response to agonist, X4:ramp1.I:2 (MRGPRX4 + RAMP1; X4:ramp1 1:2): 83.6233 and 101.678
- response to agonist, X4:ramp3.I:2 (MRGPRX4 + RAMP3 [2]): 54.7688 and 68.6572
- IP1 accumulation, dose-response (Figure 1a) ([3]; log [agonist] (M) -4): 0.4812 and 0.4346 and 0.8349 and -0.1011 and 0.2178 and -0.3214 and 0.5013 and -0.2736 and -1.513 and -0.6571 and 0.03201 and -0.9921
- IP1 accumulation, dose-response (Figure 1a) ([3]; log [agonist] (M) -4.95424): 0.8578 and 0.7057 and 0.8792 and 0.1679 and 0.2632 and -0.1306 and 0.2729 and -0.3135 and 0.01077 and -0.3984 and 1.094 and -0.3997
- IP1 accumulation, dose-response (Figure 1a) ([3]; log [agonist] (M) -5.90849): 0.6444 and 0.5533 and 0.8424 and 0.3166 and 0.4567 and -0.2351 and 0.4796 and -0.05346 and 0.7094 and 0.5317 and 1.212 and 0.8514
- IP1 accumulation, dose-response (Figure 1a) ([3]; log [agonist] (M) -6.86273): 1.003 and 1.057 and 1.14 and 0.6057 and 0.714 and 0.2582 and 0.7883 and 0.3494
- response to agonist, X4:ramp2.I:0.25 (MRGPRX4 + RAMP2; X4:ramp2 1:0.25): 79.4398 and 88.1338
- response to agonist, X4:ramp2.I:0.5 (MRGPRX4 + RAMP2; X4:ramp2 1:0.5): 67.697 and 77.1393
- response to agonist, X4:ramp2.I:1 (MRGPRX4 + RAMP2; X4:ramp2 1:1): 40.116 and 40.4903
- response to agonist, X4:ramp2.I:2 (MRGPRX4 + RAMP2; X4:ramp2 1:2): 13.5988 and 14.044
- activation at 33.333 µM (MRGPRX4; 2 h, log [agonist] (M) -4.47712, MRGX4-transfected, individual replicates, read-out: IP1 accumulation, dose-response (Figure 1a)): 16.7%
- activation at 11.111 µM (MRGPRX4; 2 h, log [agonist] (M) -4.95424, MRGX4-transfected, individual replicates, read-out: IP1 accumulation, dose-response (Figure 1a)): 14.8%
- activation at 1.2346 µM (MRGPRX4; 2 h, log [agonist] (M) -5.90849, MRGX4-transfected, individual replicates, read-out: IP1 accumulation, dose-response (Figure 1a)): 12.9%
- activation at 0.4115 µM (MRGPRX4; 2 h, log [agonist] (M) -6.38561, MRGX4-transfected, individual replicates, read-out: IP1 accumulation, dose-response (Figure 1a)): 12.7%
- activation at 0.13717 µM (MRGPRX4; 2 h, log [agonist] (M) -6.86273, MRGX4-transfected, individual replicates, read-out: IP1 accumulation, dose-response (Figure 1a)): 12.1%
- response to agonist, MRGPRX4 (MRGPRX4; Figure 4c-f, agonist 100µM, MRGPRX4 alone (reference = 100)): 100
- IP1 Basal (MRGPRX4; MRGPRX4 (Fig. 1A), HEK293T, normalized to 100 μM nateglinide): 13.66
